Reference: BindingDB's records for doi:10.1016/S0960-894X(01)80104-9 (1994)

Target: T1, Thromboxane A2 receptor (Homo sapiens, UniProt P21731)
T1 sequence (P21731 whole entry): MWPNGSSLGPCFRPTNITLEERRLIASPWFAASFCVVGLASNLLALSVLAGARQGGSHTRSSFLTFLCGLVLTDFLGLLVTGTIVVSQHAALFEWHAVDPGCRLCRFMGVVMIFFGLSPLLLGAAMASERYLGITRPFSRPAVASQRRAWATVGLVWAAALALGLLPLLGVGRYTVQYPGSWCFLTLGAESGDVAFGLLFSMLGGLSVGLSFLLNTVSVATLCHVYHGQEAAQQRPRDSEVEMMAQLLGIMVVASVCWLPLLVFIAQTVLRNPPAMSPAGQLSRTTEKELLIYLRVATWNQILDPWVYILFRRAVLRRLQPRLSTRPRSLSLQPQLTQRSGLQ
Test: In vitro thromboxane receptor antagonist against U-46619 induced aggregation of washed human platelets

| SMILES | IC50 [nM] |
| --- | --- |
| O=C(O)CC/C=C\CC[C@H]1[C@@H](OCc2ccc(-c3ccccc3)cc2)CO[C@@H]1c1cccnc1 [(Z)-7-[(2S,3R,4R)-4-(Biphenyl-4-ylmethoxy)-2-pyridin-3-yl-tetrahydro-furan-3-yl]-hept-4-enoic acid] | 28 |

Target: not listed separately
Test: In vitro thromboxane receptor antagonist against U-46619 induced aggregation of washed human platelets

| SMILES | IC50 [nM] |
| --- | --- |
| O=C(O)CCCCO/N=C(/c1cccnc1)c1cccc(C(F)(F)F)c1 [5-[Pyridin-3-yl-(3-trifluoromethyl-phenyl)-methyleneaminooxy]-pentanoic acid] | 1280 |
| O=C(O)CC/C=C\CC[C@H]1[C@@H](OCc2ccc(-c3ccccc3)cc2)CO[C@H]1c1cccnc1 [(Z)-7-[(2R,3R,4R)-4-(Biphenyl-4-ylmethoxy)-2-pyridin-3-yl-tetrahydro-furan-3-yl]-hept-4-enoic acid] | 795 |
| O=C(O)CC/C=C\CC[C@@H]1[C@@H](c2cccnc2)OC[C@H]1OCc1ccc(-c2ccccc2)cc1 [(Z)-7-[(2S,3R,4S)-4-(Biphenyl-4-ylmethoxy)-2-pyridin-3-yl-tetrahydro-furan-3-yl]-hept-4-enoic acid] | 88 |
| O=C(O)CC/C=C\CC[C@H]1[C@H](OCc2ccc(-c3ccccc3)cc2)CO[C@H]1c1cccnc1 [(Z)-7-[(2R,3R,4S)-4-(Biphenyl-4-ylmethoxy)-2-pyridin-3-yl-tetrahydro-furan-3-yl]-hept-4-enoic acid] | 820 |
| O=C(O)CC/C=C\CC[C@H]1[C@@H](OCc2ccc(-c3ccccc3)cc2)CO[C@@H]1c1cccnc1 [(Z)-7-[(2S,3R,4R)-4-(Biphenyl-4-ylmethoxy)-2-pyridin-3-yl-tetrahydro-furan-3-yl]-hept-4-enoic acid] | 27 |
